Source: PubChem BioAssay AID2060607 (Molecular Pharmacology Branch, DTP, NCI, 2025)
Values joined by “and” are separate entries in the source; they are usually repeats but may differ in a detail not shown here. Equal entries are not always repeated.

Tested on: 876862-298-R-J1-PDC complex spheroids, viability % test/control
Assay: Anticancer human tumor 876862-298-R-J1-PDC patient-derived endometrial carcinoma cell line growth inhibition [CLK]
Conditions: for viability, T/C: stronger effect = lower value
Source text: A high-throughput screen of multi-cell type tumor spheroids was designed to identify active combinations of […] and targeted small molecules. Complex spheroids include a stromal component modeled by human endothelial cells (HUVEC) and fibroblasts modeled by human mesenchymal stem cells (MSCs). The concentration ranges selected for each drug and investigational agent were based upon clinically achievable concentrations if the clinical Cmax of the agent was known.
Compounds. The drugs and investigational agents: cirtuvivint (SM08502; NSC835563), CC-671 (NSC850746), vemurafenib (NSC761431), tapotoclax (NSC804041), sotorasib (NSC818433), adagrasib (NSC831453), MRTX-1133 (NSC836407), BAY2416964 (NSC825713), copanlisib (NSC816437), inavolisib (NSC800729), abemaciclib (NSC768073), osimertinib (NSC779217), entinostat (NSC756642), eltanexor (KPT-8602, NSC794443), venetoclax (NSC766270), ceralasertib (NSC777638), bortezomib (NSC756655), olaparib (NSC753686), talazoparib (NSC767125), alisertib (NSC759677), peposertib (NSC802822), gemcitabine (NSC613327), 5-fluorouracil (NSC19893), SN-38 (NSC673596), oxaliplatin (NSC266046), paclitaxel (NSC125973), and doxorubicin (NSC123127), were obtained from the National Cancer Institute (NCI) Developmental Therapeutics Program Chemical Repository. The FDA-approved anticancer drug set is available from the Developmental Therapeutics Program at https://dtp.cancer.gov/organization/dscb/obtaining/available plates.htm. […] The stock solutions were prepared in dimethyl sulfoxide (DMSO, Sigma-Aldrich, St. Louis, MO, cat. D2650), except for the platinum complexes which were prepared in saline (Quality Biological, Gaithersburg, MD, cat. 114-055-101), at 800-fold the tested concentration and stored at -70 degrees C prior to their use. All drugs and investigational agents were tested over a range starting from a high concentration at or near the clinical Cmax and decreasing in half-log increments. If the clinical Cmax for an agent had not been determined, the highest concentration tested was 10 microM.
Cell Culture. All cells were maintained in an incubator at 37 degrees C and 5% CO2 with 95% humidity. The PDC lines were cultured according to standard operating procedures established by the NCI PDMR. Briefly, all PDCs were thawed and cultured in Matrigel-coated flasks prepared with a working solution of 1X Ham's F-12 nutrient mix, without supplementation (Invitrogen, Waltham, MA, cat. 11765054), 100 U/mL penicillin-streptomycin (Invitrogen, cat. 15140122), and 2.5% Matrigel (Corning Inc., Corning, NY, cat. 354248) for the first three passages. The 947758-054-R-J2-PDC line was cultured in 6B/Colon 1A media, which includes advanced DMEM/F-12 (Thermo Fisher Scientific, cat. 12634028), 10 mM HEPES (Thermo Fisher Scientific, cat. 15630080), 1X GlutaMAX supplement (Thermo Fisher Scientific, cat. 35050061), 0.1 mg/mL primocin (InvivoGen, cat. ant-pm-2), 10% defined fetal bovine serum, heat inactivated (HyClone Laboratories Inc., cat. SH30070.03HI), 1.25 mM N-Acetyl-L-cysteine (Sigma-Aldrich, cat. A9165), 10 mM nicotinamide (Sigma-Aldrich, cat. N0636), 1X B-27 supplement (Thermo Fisher Scientific, cat. 17504044), 1X N-2 supplement (Thermo Fisher Scientific, cat. 17502048), and 10 microM Y-27632 dihydrochloride (Tocris Bioscience, cat. 1254). The 876862-298-R-J1-PDC was cultured in 6E media, which includes all 6B/Colon 1A media components plus 50% L-WRN conditioned media (ATCC, cat. CRL-3276), 50 ng/mL recombinant human EGF recombinant protein (hEGF; Thermo Fisher Scientific, cat. PHG0311), 10 ng/mL recombinant human fibroblast growth factor 10 (hGFG-10; PeproTech, cat. 100-26), 1 ng/mL recombinant human fibroblast growth factor 2 (hFGF-2; PeproTech, cat. 100-18B), and 1 µM prostaglandin E2 (PGE2; Tocris, cat. 2296). The 227483-062-R1-J1-PDC line was cultured in Panc media, containing all 6E components except hFGF-2, with the addition of 500 nM SB-431542 (Selleckchem, cat. S1067) and 10 nM gastrin (Tocris, cat. 3006). […]

[1] = curve of first compound, second compound 0.0316 µM
[2] = curve of first compound, second compound 0.1 µM
[3] = curve of first compound, second compound 0.316 µM
[4] = curve of first compound, second compound 1 µM
[5] = curve of first compound, second compound 3.16 µM
[6] = curve of first compound, second compound 10 µM
[7] = second compound 0.0316 µM, first compound 0.0316 µM
[8] = second compound 0.0316 µM, first compound 0.1 µM
[9] = second compound 0.0316 µM, first compound 0.316 µM
[10] = second compound 0.0316 µM, first compound 1 µM
[11] = second compound 0.0316 µM, first compound 3.16 µM
[12] = second compound 0.0316 µM, first compound 10 µM
[13] = second compound 0.1 µM, first compound 0.0316 µM
[14] = second compound 0.1 µM, first compound 0.1 µM
[15] = second compound 0.1 µM, first compound 0.316 µM
[16] = second compound 0.1 µM, first compound 1 µM
[17] = second compound 0.1 µM, first compound 3.16 µM
[18] = second compound 0.1 µM, first compound 10 µM
[19] = second compound 0.316 µM, first compound 0.0316 µM
[20] = second compound 0.316 µM, first compound 0.1 µM
[21] = second compound 0.316 µM, first compound 0.316 µM
[22] = second compound 0.316 µM, first compound 1 µM
[23] = second compound 0.316 µM, first compound 3.16 µM
[24] = second compound 0.316 µM, first compound 10 µM
[25] = second compound 1 µM, first compound 0.0316 µM
[26] = second compound 1 µM, first compound 0.1 µM
[27] = second compound 1 µM, first compound 0.316 µM
[28] = second compound 1 µM, first compound 1 µM
[29] = second compound 1 µM, first compound 3.16 µM
[30] = second compound 1 µM, first compound 10 µM
[31] = second compound 3.16 µM, first compound 0.0316 µM
[32] = second compound 3.16 µM, first compound 0.1 µM
[33] = second compound 3.16 µM, first compound 0.316 µM
[34] = second compound 3.16 µM, first compound 1 µM
[35] = second compound 3.16 µM, first compound 3.16 µM
[36] = second compound 3.16 µM, first compound 10 µM
[37] = second compound 10 µM, first compound 0.0316 µM
[38] = second compound 10 µM, first compound 0.1 µM
[39] = second compound 10 µM, first compound 0.316 µM
[40] = second compound 10 µM, first compound 1 µM
[41] = second compound 10 µM, first compound 3.16 µM
[42] = second compound 10 µM, first compound 10 µM
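Note: spheroids exposed to drugs for 7 days before readout.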
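Throughout, for viability, T/C: 100% = DMSO vehicle control wells.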

## C=CC(=O)Nc1cc(Nc2nccc(-c3cn(C)c4ccccc34)n2)c(OC)cc1N(C)CCN(C)C
Compound 0.000949 µM
  viability, T/C: 107% and 103%
Compound 0.003 µM
  viability, T/C: 98.7% and 109%
Compound 0.00949 µM
  viability, T/C: 100% and 103%
Compound 0.03 µM
  viability, T/C: 96.7% and 88.7%
Compound 0.0949 µM
  viability, T/C: 81% and 82.2%
Compound 0.3 µM
  viability, T/C: 46.5% and 48.2%
Curve of compound
  IC50: 269 nM and 290 nM

## CC(=O)O[C@H]1C(=O)[C@@]2(C)[C@H]([C@H](OC(=O)c3ccccc3)[C@]3(O)C[C@H](OC(=O)[C@H](O)[C@@H](NC(=O)c4ccccc4)c4ccccc4)C(C)=C1C3(C)C)[C@]1(OC(C)=O)CO[C@@H]1C[C@@H]2O
Compound 0.0316 µM
  viability, T/C: 25.9% and 26.5%
Compound 0.1 µM
  viability, T/C: 23.7% and 22.9%
Compound 0.316 µM
  viability, T/C: 23% and 20%
Compound 1 µM
  viability, T/C: 25.4% and 25.1%
Compound 3.16 µM
  viability, T/C: 29.2% and 23.1%
Compound 10 µM
  viability, T/C: 32.2% and 26.1%
Curve of compound
  IC50: < 31.6 nM

## COc1cccc2c1C(=O)c1c(O)c3c(c(O)c1C2=O)CC(O)(C(=O)CO)CC3OC1CC(N)C(O)C(C)O1 (stereo not drawn) + CN1CCN(c2cc(C(=O)Nc3cc4cc(-c5cnn(C)c5)ccc4cn3)ccn2)CC1
[1]
  IC50: < 31.6 nM
[2]
  IC50: < 31.6 nM
[3]
  IC50: < 31.6 nM
[4]
  IC50: < 31.6 nM
[5]
  IC50: < 31.6 nM
[6]
  IC50: < 31.6 nM
[7]
  viability, T/C: 31.7%
[8]
  viability, T/C: 11.8%
[9]
  viability, T/C: 7.2%
[10]
  viability, T/C: 5.47%
[11]
  viability, T/C: 0.87%
[12]
  viability, T/C: 4.47%
[13]
  viability, T/C: 19.7%
[14]
  viability, T/C: 11.4%
[15]
  viability, T/C: 8.05%
[16]
  viability, T/C: 3.31%
[17]
  viability, T/C: 1.71%
[18]
  viability, T/C: 4.36%
[19]
  viability, T/C: 1.75%
[20]
  viability, T/C: 1.55%
[21]
  viability, T/C: 1.57%
[22]
  viability, T/C: 0.79%
[23]
  viability, T/C: 1.62%
[24]
  viability, T/C: 3.91%
[25]
  viability, T/C: 0.91%
[26]
  viability, T/C: 0.64%
[27]
  viability, T/C: 0.76%
[28]
  viability, T/C: 0.97%
[29]
  viability, T/C: 1.41%
[30]
  viability, T/C: 4.08%
[31]
  viability, T/C: 1.18%
[32]
  viability, T/C: 1.91%
[33]
  viability, T/C: 0.9%
[34]
  viability, T/C: 0.76%
[35]
  viability, T/C: 2.8%
[36]
  viability, T/C: 3.09%
[37]
  viability, T/C: 0.55%
[38]
  viability, T/C: 0.59%
[39]
  viability, T/C: 1.41%
[40]
  viability, T/C: 0.97%
[41]
  viability, T/C: 0.51%
[42]
  viability, T/C: 1.61%

## COc1ccc([C@@H](O)c2cc(-c3ncnc4cc(N5CCOCC5)ccc34)c(F)cc2Cl)nn1 + CN1CCN(c2cc(C(=O)Nc3cc4cc(-c5cnn(C)c5)ccc4cn3)ccn2)CC1
[1]
  IC50: 4950 nM
[2]
  IC50: < 31.6 nM
[3]
  IC50: < 31.6 nM
[4]
  IC50: < 31.6 nM
[5]
  IC50: < 31.6 nM
[6]
  IC50: < 31.6 nM
[7]
  viability, T/C: 93.3%
[8]
  viability, T/C: 90%
[9]
  viability, T/C: 86%
[10]
  viability, T/C: 84.2%
[11]
  viability, T/C: 59.2%
[12]
  viability, T/C: 35%
[13]
  viability, T/C: 46.2%
[14]
  viability, T/C: 43.4%
[15]
  viability, T/C: 47%
[16]
  viability, T/C: 42.8%
[17]
  viability, T/C: 31.5%
[18]
  viability, T/C: 21.1%
[19]
  viability, T/C: 2.02%
[20]
  viability, T/C: 2.01%
[21]
  viability, T/C: 3%
[22]
  viability, T/C: 2.2%
[23]
  viability, T/C: 1.56%
[24]
  viability, T/C: 2.98%
[25]
  viability, T/C: 0.64%
[26]
  viability, T/C: 0.77%
[27]
  viability, T/C: 0.64%
[28]
  viability, T/C: 0.69%
[29]
  viability, T/C: 0.55%
[30]
  viability, T/C: 2.27%
[31]
  viability, T/C: 1.08%
[32]
  viability, T/C: 2.43%
[33]
  viability, T/C: 1.6%
[34]
  viability, T/C: 1%
[35]
  viability, T/C: 2.06%
[36]
  viability, T/C: 1.3%
[37]
  viability, T/C: 0.75%
[38]
  viability, T/C: 0.99%
[39]
  viability, T/C: 1.44%
[40]
  viability, T/C: 1.58%
[41]
  viability, T/C: 1.58%
[42]
  viability, T/C: 1.69%
